Test results published in patent US6825170B2, “6-O-acyl ketolide antibacterials” (Ortho-McNeil Pharmaceutical, Inc., priority 2001, dated 2004).
Values after ≈ are worked out from the molar mass of the structure shown.

Columns and labels:
Experiment in all cases: MIC, microdilution broth method (NCCLS)
Type in all cases: cell-based
Settings in all cases: 35° C., 16-20 hours
S. aureus ATCC29213 = test system: S. aureus ATCC29213
Method in brief: (§1)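 Actively growing broth cultures are turbidity-adjusted to give about 5×10^4 CFU/well, then added to two-fold compound dilutions in cation-adjusted Mueller-Hinton broth. After 16-20 hours at 35° C, growth is compared with untreated controls.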

S. pneumoniae ATCC49619 = test system: S. pneumoniae ATCC49619
Method in brief: as §1

H. influenzae ATCC49247 = test system: H. influenzae ATCC49247
Method in brief: as §1

E. faecalis ATCC29212 = test system: E. faecalis ATCC29212
Method in brief: as §1

E. coli OC2605 = test system: E. coli OC2605
Method in brief: as §1

Compound	MIC (B: S. aureus ATCC29213) (S. aureus ATCC29213) [µg/mL]	MIC (D: S. pneumoniae ATCC49619) (S. pneumoniae ATCC49619) [µg/mL]	MIC (E: H. influenzae ATCC49247) (H. influenzae ATCC49247) [µg/mL]	MIC (C: E. faecalis ATCC29212) (E. faecalis ATCC29212) [µg/mL]	MIC (A: E. coli OC2605) (E. coli OC2605) [µg/mL]
CCC1OC(=O)C(C)C(=O)C(C)C(OC2OC(C)CC(N(C)C)C2O)C(C)(OC(=O)OCC=Cc2ccc(-c3ncccn3)cc2)CC(C)C(=O)C(C)C2NC(=O)OC12C (stereo not shown) [Compound 7]	0.12 (≈ 0.143 µM)	0.03 (≈ 0.0358 µM)	2 (≈ 2.39 µM)	0.06 (≈ 0.0717 µM)	8 (≈ 9.56 µM)
CCC1OC(=O)C(C)C(=O)C(C)C(OC2OC(C)CC(N(C)C)C2O)C(C)(OC(=O)OCC=Cc2ccc(-c3cccnn3)cc2)CC(C)C(=O)C(C)C2NC(=O)OC12C (stereo not shown) [Compound 20]	0.12 (≈ 0.143 µM)	0.03 (≈ 0.0358 µM)	2 (≈ 2.39 µM)	0.06 (≈ 0.0717 µM)	8 (≈ 9.56 µM)
CCC1OC(=O)C(C)C(=O)C(C)C(OC2OC(C)CC(N(C)C)C2O)C(C)(OC(=O)OCc2ccc(-c3ncccn3)cc2)CC(C)C(=O)C(C)C2NC(=O)OC12C (stereo not shown) [Compound 77]	0.12 (≈ 0.148 µM)	0.03 (≈ 0.037 µM)	2 (≈ 2.47 µM)	0.06 (≈ 0.074 µM)	8 (≈ 9.87 µM)
CCC1OC(=O)C(C)C(=O)C(C)C(OC2OC(C)CC(N(C)C)C2O)C(C)(OC(=O)OCC#Cc2ccc(-c3cnccn3)cc2)CC(C)C(=O)C(C)C2NC(=O)OC12C (stereo not shown) [Compound 86]	0.12 (≈ 0.144 µM)	0.03 (≈ 0.0359 µM)	2 (≈ 2.4 µM)	0.06 (≈ 0.0719 µM)	8 (≈ 9.58 µM)
CCC1OC(=O)C(C)C(=O)C(C)C(OC2OC(C)CC(N(C)C)C2O)C(C)(OC(=O)OCC#Cc2ccc(-c3cccnn3)cc2)CC(C)C(=O)C(C)C2NC(=O)OC12C (stereo not shown) [Compound 87]	0.12 (≈ 0.144 µM)	0.03 (≈ 0.0359 µM)	1 (≈ 1.2 µM)	0.06 (≈ 0.0719 µM)	8 (≈ 9.58 µM)
CCC1OC(=O)C(C)C(=O)C(C)C(OC2OC(C)CC(N(C)C)C2O)C(C)(OC(=O)NOCC=Cc2ccc(-c3ncccn3)cc2)CC(C)C(=O)C(C)C2NC(=O)OC12C (stereo not shown) [Compound 605]	0.25 (≈ 0.293 µM)	0.06 (≈ 0.0704 µM)	4 (≈ 4.69 µM)	0.25 (≈ 0.293 µM)	16 (≈ 18.8 µM)
CCC1OC(=O)C(C)C(=O)C(C)C(OC2OC(C)CC(N(C)C)C2O)C(C)(OC(=O)NOCCCc2ccc(-c3ncccn3)cc2)CC(C)C(=O)C(C)C2NC(=O)OC12C (stereo not shown) [Compound 608]	0.5 (≈ 0.585 µM)	0.06 (≈ 0.0703 µM)	4 (≈ 4.68 µM)	0.5 (≈ 0.585 µM)	>16
CC[C@H]1OC(=O)[C@H](C)C(=O)[C@H](C)[C@@H](O[C@@H]2O[C@H](C)C[C@H](N(C)C)[C@H]2O)[C@](C)(OC(=O)NOCCCc2ccccc2)C[C@@H](C)C(=O)[C@H](C)[C@H]2NC(=O)O[C@@]21C [Compound 612]	1 (≈ 1.29 µM)	0.06 (≈ 0.0773 µM)	4 (≈ 5.16 µM)	0.25 (≈ 0.322 µM)	>16
CC[C@H]1OC(=O)[C@H](C)C(=O)[C@H](C)[C@@H](O[C@@H]2O[C@H](C)C[C@H](N(C)C)[C@H]2O)[C@](C)(OC(=O)NNCCc2ccc(-c3ncccn3)cc2)C[C@@H](C)C(=O)[C@H](C)[C@H]2NC(=O)O[C@@]21C [Compound 626]	0.25 (≈ 0.298 µM)	0.03 (≈ 0.0358 µM)	4 (≈ 4.77 µM)	0.12 (≈ 0.143 µM)	>16
CC[C@H]1OC(=O)[C@H](C)C(=O)[C@H](C)[C@@H](O[C@@H]2O[C@H](C)C[C@H](N(C)C)[C@H]2O)[C@](C)(OC(=O)NNCc2ccc3ncccc3c2)C[C@@H](C)C(=O)[C@H](C)[C@H]2NC(=O)O[C@@]21C [Compound 661]	0.5 (≈ 0.627 µM)	0.03 (≈ 0.0376 µM)	2 (≈ 2.51 µM)	0.12 (≈ 0.15 µM)	>16

Continued, values first:

MIC (B: S. aureus ATCC29213) (S. aureus ATCC29213) [µg/mL]	MIC (D: S. pneumoniae ATCC49619) (S. pneumoniae ATCC49619) [µg/mL]	MIC (E: H. influenzae ATCC49247) (H. influenzae ATCC49247) [µg/mL]	MIC (C: E. faecalis ATCC29212) (E. faecalis ATCC29212) [µg/mL]	MIC (A: E. coli OC2605) (E. coli OC2605) [µg/mL]	Compound
0.25 (≈ 0.299 µM)	0.03 (≈ 0.0359 µM)	2 (≈ 2.4 µM)	0.12 (≈ 0.144 µM)	16 (≈ 19.2 µM)	CCC1OC(=O)C(C)C(=O)C(C)C(OC2OC(C)CC(N(C)C)C2O)C(C)(OC(=O)OCC#Cc2ccc(-c3ncccn3)cc2)CC(C)C(=O)C(C)C2NC(=O)OC12C (stereo not shown) [Compound 80]
1 (≈ 1.34 µM)	0.03 (≈ 0.0401 µM)	4 (≈ 5.35 µM)	0.25 (≈ 0.334 µM)	>16	CCC1OC(=O)C(C)C(=O)C(C)C(OC2OC(C)CC(N(C)C)C2O)C(C)(OC(=O)NOCc2ccccc2)CC(C)C(=O)C(C)C2NC(=O)OC12C (stereo not shown) [Compound 570]
0.5 (≈ 0.595 µM)	0.03 (≈ 0.0357 µM)	4 (≈ 4.76 µM)	0.12 (≈ 0.143 µM)	>16	CCC1OC(=O)C(C)C(=O)C(C)C(OC2OC(C)CC(N(C)C)C2O)C(C)(OC(=O)NOCCc2ccc(-c3ncccn3)cc2)CC(C)C(=O)C(C)C2NC(=O)OC12C (stereo not shown) [Compound 571]
0.5 (≈ 0.605 µM)	0.06 (≈ 0.0726 µM)	2 (≈ 2.42 µM)	0.25 (≈ 0.303 µM)	16 (≈ 19.4 µM)	CCC1OC(=O)C(C)C(=O)C(C)C(OC2OC(C)CC(N(C)C)C2O)C(C)(OC(=O)NOCc2ccc(-c3ncccn3)cc2)CC(C)C(=O)C(C)C2NC(=O)OC12C (stereo not shown) [Compound 599]
2 (≈ 2.62 µM)	0.12 (≈ 0.157 µM)	8 (≈ 10.5 µM)	0.5 (≈ 0.656 µM)	>16	CC[C@H]1OC(=O)[C@H](C)C(=O)[C@H](C)[C@@H](O[C@@H]2O[C@H](C)C[C@H](N(C)C)[C@H]2O)[C@](C)(OC(=O)NOCCc2ccccc2)C[C@@H](C)C(=O)[C@H](C)[C@H]2NC(=O)O[C@@]21C [Compound 611]
4 (≈ 5.46 µM)	0.12 (≈ 0.164 µM)	4 (≈ 5.46 µM)	0.5 (≈ 0.682 µM)	>16	CC[C@H]1OC(=O)[C@H](C)C(=O)[C@H](C)[C@@H](O[C@@H]2O[C@H](C)C[C@H](N(C)C)[C@H]2O)[C@](C)(OC(=O)NNc2ccccc2)C[C@@H](C)C(=O)[C@H](C)[C@H]2NC(=O)O[C@@]21C [Compound 624]
2 (≈ 2.68 µM)	0.03 (≈ 0.0402 µM)	4 (≈ 5.36 µM)	0.25 (≈ 0.335 µM)	>16	CC[C@H]1OC(=O)[C@H](C)C(=O)[C@H](C)[C@@H](O[C@@H]2O[C@H](C)C[C@H](N(C)C)[C@H]2O)[C@](C)(OC(=O)NNCc2ccccc2)C[C@@H](C)C(=O)[C@H](C)[C@H]2NC(=O)O[C@@]21C [Compound 625]
